Entries after “also recorded” stand apart in the source; their conditions may differ. Structures can show the parent of a compound that is named as a salt. Where two headings read alike, the source gives them in different places.
Tests used:
[1] = Bioavailability study in dogs (oral capsule formulations; intraduodenal non-aqueous solution); format: in vivo, male beagle dogs; conditions: for bioavailability: plasma
[2] = Hygroscopicity study (moisture uptake, dynamic vapor sorption analyzer); format: physicochemical; conditions: for % Moisture Uptake: percentage weight gain
Text: ^a Measured on a dynamic vapor sorption analyzer as percentage weight

[3] = Accelerated stability studies; format: physicochemical; conditions: stored at 50° C.
[4] = Enterohepatic extraction ratio and theoretical maximum oral bioavailability; format: in vivo; conditions: dogs
[5] = Aqueous solubility under acidic conditions; format: physicochemical; conditions: water, pH<5.34
Description: The aqueous solubility of the diacid of the compound of Formula (I) is very limited under acidic conditions. The solubility is less than 0.1 ug/mL at pH<5.34.

CCCCn1ncc(/C=C(\Cc2cc3c(cc2OC)CCO3)C(=O)O)c1-c1ccc(Cl)cc1OCc1ccccc1C(=O)O [Disodium Salt]
bioavailability ([1]; dog, dog, non-aqueous solution (99% PEG 400, 1% DMSO) dosed intraduodenally, only 2 animals, read-out: Mean % Oral Bioavailability ± SD): 14.5%
bioavailability ([1]; dog, po, dog, oral capsule (with microcrystalline cellulose as diluent), read-out: Mean % Oral Bioavailability ± SD): 6.2%
% Moisture Uptake ([2]; 0% relative humidity): 0%
% Moisture Uptake ([2]; 10% relative humidity): 1.849%
% Moisture Uptake ([2]; 20% relative humidity): 2.838%
% Moisture Uptake ([2]; 30% relative humidity): 3.821%
% Moisture Uptake ([2]; 40% relative humidity): 5.013%
% Moisture Uptake ([2]; 50% relative humidity): 6.773%
% Moisture Uptake ([2]; 60% relative humidity): 10.188%
% Moisture Uptake ([2]; 70% relative humidity): 15.919%
% Moisture Uptake ([2]; 80% relative humidity): 22.472%
% Moisture Uptake ([2]; 90% relative humidity): 33.671%

CCCCn1ncc(/C=C(\Cc2cc3c(cc2OC)CCO3)C(=O)O)c1-c1ccc(Cl)cc1OCc1ccccc1C(=O)O [Monoargininyl Salt, (E)-3-[1-n-Butyl-5-[2-(2-carboxyphenyl)methoxy-4-chlorophenyl]1H-pyrazol-4-yl]-2-[(5-methoxy-2,3-dihydrobenzofuran-6-yl)methyl]-prop-2-enoic Acid, Monoargininyl Salt]
Mean % Oral Bioavailability ± SD ([1]; dog, oral capsule (with microcrystalline cellulose as diluent), 10 mg/kg): 13.8 ± 7.6%
bioavailability compared with other forms (in words) ([1]; dogs, vs disodium salt or dissolution-enhancing formulations of the diacid): increased bioavailability as compared to the disodium salt or dissolution-enhancing formulations of the diacid
% Moisture Uptake ([2]; 0% relative humidity): 0%
% Moisture Uptake ([2]; 10% relative humidity, listed as Monoarginine): 0.261%
% Moisture Uptake ([2]; 20% relative humidity, listed as Monoarginine): 0.382%
% Moisture Uptake ([2]; 30% relative humidity, listed as Monoarginine): 0.526%
% Moisture Uptake ([2]; 40% relative humidity, listed as Monoarginine): 0.689%
% Moisture Uptake ([2]; 50% relative humidity, listed as Monoarginine): 0.827%
% Moisture Uptake ([2]; 60% relative humidity, listed as Monoarginine): 0.982%
% Moisture Uptake ([2]; 70% relative humidity, listed as Monoarginine): 1.092%
% Moisture Uptake ([2]; 80% relative humidity, listed as Monoarginine): 1.434%
% Moisture Uptake ([2]; 90% relative humidity, listed as Monoarginine): 2.334%
hygroscopicity (in words) ([2]; compared with diacid and amorphous disodium salt, listed as monoarginine salt): minimally hygroscopic; also recorded: slightly more hygroscopic than the diacid form; also recorded: considerably less hygroscopic than the amorphous disodium salt form
moisture absorbed ([2]; relative humidity range of 0 to 90%): 2.3%
chemical stability [3]: chemically stable for at least three weeks

CCCCn1ncc(/C=C(\Cc2cc3c(cc2OC)CCO3)C(=O)O)c1-c1ccc(Cl)cc1OCc1ccccc1C(=O)O [Diacid, (E)-3-[1-n-Butyl-5-[2-(2-carboxyphenyl)methoxy-4-chlorophenyl]-1H-pyrazol-4-yl]-2-[(5-methoxy-2,3-dihydrobenzofuran-6-yl)methyl]-prop-2-enoic acid]
bioavailability ([1]; dog, po, 10 mg/kg, dogs, oral dosing of a simple capsule formulation, read-out: oral bioavailability): 3.9%
bioavailability ([1]; dog, po, dog, oral capsule with 0.5% Tween 80 & 2 MEq NMG (also some microcrystalline cellulose, lactose, starch), read-out: Mean % Oral Bioavailability ± SD): 6.3 ± 5.3%
bioavailability ([1]; dog, po, dog, oral capsule with 0.5% Tween 80 (also some microcrystalline cellulose, lactose, starch), read-out: Mean % Oral Bioavailability ± SD): 2.3 ± 3.7%
hepatic extraction ratio ([4]; dog, in vivo): 0.82
theoretical maximum value of oral bioavailability ([4]; from enterohepatic extraction ratio): 18%
solubility [5]: < 0.1 µg/mL
% Moisture Uptake ([2]; 0% relative humidity): 0%
% Moisture Uptake ([2]; 10% relative humidity): 0.077%
% Moisture Uptake ([2]; 20% relative humidity): 0.088%
% Moisture Uptake ([2]; 30% relative humidity): 0.126%
% Moisture Uptake ([2]; 40% relative humidity): 0.184%
% Moisture Uptake ([2]; 50% relative humidity): 0.245%
% Moisture Uptake ([2]; 60% relative humidity): 0.316%
% Moisture Uptake ([2]; 70% relative humidity): 0.395%
% Moisture Uptake ([2]; 80% relative humidity): 0.509%
% Moisture Uptake ([2]; 90% relative humidity): 0.518%

Reference: US6300359A, “(E)-3-[1-n-Butyl-5-[2-(2-carboxyphenyl)methoxy-4-chlorophenyl]-1H-pyrazol-4 -yl]-2-[(5-methoxy-2,3-dihydrobenzofuran-6-yl)methyl]-prop-2-enoic acid monoargininyl salt” (SmithKline Beecham Corporation, priority 2000, dated 2001)
